In publication PMC7377239, “Cardiovascular Effects of Polychlorinated Biphenyls and Their Major Metabolites” (Environmental Health Perspectives, 2020):
Where two headings read alike, the source gives them in different places.

Assays:
[1] = system: HUVECs; experiment: High-content imaging cytotoxicity in HUVECs, 24 h; format: cell-based, human; details: Homo sapiens, HUVEC, 24 h, HUVECs; for viability at 0.01 µM / activity at 0.01 µM / viability at 0.1 µM / activity at 0.1 µM / viability at 1 µM / activity at 1 µM / viability at 10 µM / activity at 10 µM / viability at 100 µM / activity at 100 µM: 0.00 µM = 100.00; for viability at 0.1 µM / activity at 0.1 µM: 0.10 µM; for minimal effective concentration: top concentration 100.00 µM
In short: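 Confluent HUVEC monolayers, passages 1–5, received test chemicals for 24 h. Cytotoxicity was scored from triple-stain high-content images, with PODs defined by a one-SD deviation from 0.5% DMSO vehicle controls.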

[2] = system: iCell endothelial cells (human iPSC-derived ECs); experiment: High-content imaging cytotoxicity in iCell endothelial cells, 24 h; format: cell-based; details: Homo sapiens, Endothelial cell, iPSC-EC, 24 hr; for viability at 0.1 µM / activity at 0.1 µM: 0.10 µM; for minimal effective concentration: top concentration 100.00 µM
In short: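 Readouts were vehicle-normalised and fitted to a four-parameter logistic model. POD was set at one SD beyond 0.5% DMSO control means, and 100 µM was assigned when no response was seen. Cells were monolayers of iCell endothelial cells imaged after 24 h compound exposure using nuclear, mitochondrial and calcein dyes.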

[3] = 24 hr, read-out: huvec.cyto.24hr
[4] = 24 hr, read-out: huvec.mito.24hr
[5] = 24 hr, read-out: huvec.mitoint.24hr
[6] = 24 hr, read-out: huvec.nma.24hr
[7] = 24 hrs, read-out: huvec.tc.24hrs
[8] = 0.00 µM control = 100.00, read-out: endo.cyto.24hr
[9] = 0.00 µM control = 100.00, read-out: endo.mito.24hr
[10] = 0.00 µM control = 100.00, read-out: endo.mitoint.24hr
[11] = 0.00 µM control = 100.00, read-out: endo.nma.24hr
[12] = 0.00 µM control = 100.00, read-out: endo.tc.24hrs

Clc1cccc(-c2cccc(Cl)c2)c1 [PCB11]
viability at 0.01 µM [1, 3]: 91.9% | activity at 0.01 µM [1, 4]: 90.9% | activity at 0.01 µM [1, 5]: 90.3% | activity at 0.01 µM [1, 6]: 99.1% | viability at 0.1 µM [1, 3]: 99.2% | activity at 0.1 µM [1, 4]: 97.8% | activity at 0.1 µM [1, 5]: 99.8% | activity at 0.1 µM [1, 6]: 99.1% | viability at 1 µM [1, 3]: 96.6% | activity at 1 µM [1, 4]: 96.2% | activity at 1 µM [1, 5]: 95.2% | activity at 1 µM [1, 6]: 98.1% | viability at 10 µM [1, 3]: 95% | activity at 10 µM [1, 4]: 93.9% | activity at 10 µM [1, 5]: 89.1% | activity at 10 µM [1, 6]: 96.6% | viability at 100 µM [1, 3]: 44.7% | activity at 100 µM [1, 4]: 22.1% | activity at 100 µM [1, 5]: 15.7% | activity at 100 µM [1, 6]: 54.9% | minimal effective concentration ([1]; 24 hr, read-out: huvec.cyto.24hr POD): 11.2 µM | minimal effective concentration ([1]; 24 hr, read-out: huvec.mito.24hr POD): 9.68 µM | minimal effective concentration ([1]; 24 hr, read-out: huvec.mitoint.24hr POD): 7.62 µM | minimal effective concentration ([1]; 24 hr, read-out: huvec.nma.24hr POD): 9.3 µM | viability at 0.01 µM [1, 7]: 91.9% | viability at 0.1 µM [1, 7]: 99.2% | viability at 1 µM [1, 7]: 96.6% | viability at 10 µM [1, 7]: 95% | viability at 100 µM [1, 7]: 44.9% | minimal effective concentration ([1]; 24 hrs, read-out: huvec.tc.24hrs POD): 11.2 µM | viability at 0.01 µM [2, 8]: 99.3% | activity at 0.01 µM [2, 9]: 99.6% | activity at 0.01 µM [2, 10]: 100% | activity at 0.01 µM [2, 11]: 101% | viability at 0.01 µM [2, 12]: 99.3% | viability at 0.1 µM [2, 8]: 95.3% | activity at 0.1 µM [2, 9]: 96% | activity at 0.1 µM [2, 10]: 97.8% | activity at 0.1 µM [2, 11]: 102% | viability at 0.1 µM [2, 12]: 95.3% | viability at 1 µM [2, 8]: 96.6% | activity at 1 µM [2, 9]: 97% | activity at 1 µM [2, 10]: 96.1% | activity at 1 µM [2, 11]: 99.7% | viability at 1 µM [2, 12]: 96.6% | viability at 10 µM [2, 8]: 99% | activity at 10 µM [2, 9]: 99.4% | activity at 10 µM [2, 10]: 107% | activity at 10 µM [2, 11]: 100% | viability at 10 µM [2, 12]: 99% | viability at 100 µM [2, 8]: 104% | activity at 100 µM [2, 9]: 105% | activity at 100 µM [2, 10]: 92.6% | activity at 100 µM [2, 11]: 100% | viability at 100 µM [2, 12]: 104% | minimal effective concentration ([2]; read-out: endo.cyto.24hr POD): 100 µM | minimal effective concentration ([2]; read-out: endo.mito.24hr POD): 100 µM | minimal effective concentration ([2]; read-out: endo.mitoint.24hr POD): 100 µM | minimal effective concentration ([2]; read-out: endo.nma.24hr POD): 100 µM | minimal effective concentration ([2]; read-out: endo.tc.24hrs POD): 100 µM
